How the values were obtained:
[1] = Compound cytotoxicity, XTT-based colorimetric assay; format: cell-based; details: human, uninfected MT2 cells
Outline: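 XTT colorimetric read-out on day 4 gave CC50 values, using MT2 cells left uninfected but otherwise handled as in the antiviral assay.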

[2] = test system: recombinant NL4-3 virus (nef section replaced with Renilla luciferase gene) in MT-2 cells; experiment: HIV cell culture assay (antiviral activity, luciferase readout); format: cell-based; details: MT-2 cells infected for 4-5 days with recombinant NL4-3 luciferase virus
Outline: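 Serially diluted compounds were present throughout a 4-5 day infection of MT-2 cells by recombinant NL4-3 whose nef region partly encodes Renilla luciferase. Antiviral activity was taken from live-cell luciferase signal, with the 50% effective concentration fitted by the exponential median effect equation.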

SMILES: COc1c(F)cc2c(=O)n(-c3ccc(Cl)c4c(NS(C)(=O)=O)nn(C)c34)c([C@H](Cc3cc(F)cc(F)c3)NC(=O)Cn3ccc(C4CC4)n3)nc2c1F (single isomer, unassigned) [Example 115]
- CC50 at 4 days ([1]; Table 1a, day 4, XTT): > 1000 nM
- EC50 ([2]; Table 1a): 68.4 nM

SMILES: Cn1ccc2nc(C(Cc3cc(F)cc(F)c3)NC(=O)Cn3nc(C(F)F)c4c3C(F)(F)[C@@H]3C[C@H]43)c(-c3ccc(Cl)c4c(NS(C)(=O)=O)nn(C)c34)cc21 (single isomer, unassigned) [Example 117]
- CC50 at 4 days ([1]; Table 1a, day 4, XTT): > 10000 nM
- EC50 ([2]; Renilla, NL43, Table 1a): 0.243 nM

SMILES: Cn1ccc2nc([C@H](Cc3cc(F)cc(F)c3)NC(=O)Cn3nc(C(F)F)c4c3C(F)(F)[C@@H]3C[C@H]43)c(-c3ccc(Cl)c4c(NS(C)(=O)=O)nn(C)c34)cc21 (single isomer, unassigned) [Example 119]
- CC50 at 4 days ([1]; Table 1a, day 4, XTT): > 10000 nM
- EC50 ([2]; Renilla, NL43, Table 1a): 0.0924 nM

SMILES: Cn1ccc2nc([C@@H](Cc3cc(F)cc(F)c3)NC(=O)Cn3nc(C(F)F)c4c3C(F)(F)[C@@H]3C[C@H]43)c(-c3ccc(Cl)c4c(NS(C)(=O)=O)nn(C)c34)cc21 (single isomer, unassigned) [Example 121]
- CC50 at 4 days ([1]; Table 1a, day 4, XTT): > 10000 nM
- EC50 ([2]; Renilla, NL43, Table 1a): 171 nM

SMILES: Cc1cccc2nc([C@H](Cc3cc(F)cc(F)c3)NC(=O)Cn3nc(C(F)F)c4c3C(F)(F)[C@@H]3C[C@H]43)n(-c3ccc(Cl)c4c(NS(C)(=O)=O)nn(C)c34)c(=O)c12 (single isomer, unassigned) [Example 125]
- CC50 at 4 days ([1]; Table 1a, day 4, XTT): > 1000 nM
- EC50 ([2]; Table 1a): 63.9 nM

SMILES: Cn1nc(NS(C)(=O)=O)c2c(Cl)ccc(-n3c([C@H](Cc4cc(F)cc(F)c4)NC(=O)Cn4nc(C(F)F)c5c4C(F)(F)[C@@H]4C[C@H]54)nc4cccc(C(F)(F)F)c4c3=O)c21 (single isomer, unassigned) [Example 127]
- CC50 at 4 days ([1]; Table 1a, day 4, XTT): > 1000 nM
- EC50 ([2]; Table 1a): 379 nM

SMILES: Cn1nc(NS(C)(=O)=O)c2c(Cl)ccc(-n3c([C@H](Cc4cc(F)cc(F)c4)NC(=O)Cn4nc(C(F)F)c5c4C(F)(F)[C@@H]4C[C@H]54)nc4cc(F)cc(F)c4c3=O)c21 (single isomer, unassigned) [Example 130]
- CC50 at 4 days ([1]; Table 1a, day 4, XTT): > 1000 nM
- EC50 ([2]; Renilla, NL43, Table 1a): 0.15 nM

SMILES: Cn1nc(NS(C)(=O)=O)c2c(Cl)ccc(-n3c([C@H](Cc4cc(F)cc(F)c4)NC(=O)Cn4ccc(C5CC5)n4)nc4cc(F)cc(F)c4c3=O)c21 (single isomer, unassigned) [Example 131]
- CC50 at 4 days ([1]; Table 1a, day 4, XTT): > 1000 nM
- EC50 ([2]; Renilla, NL43, Table 1a): 111 nM

SMILES: Cc1cccc2nc([C@H](Cc3cc(F)cc(F)c3)NC(=O)Cn3ccc(C4CC4)n3)n(-c3ccc(Cl)c4c(NS(C)(=O)=O)nn(C)c34)c(=O)c12 (single isomer, unassigned) [Example 133]
- CC50 at 4 days ([1]; Table 1a, day 4, XTT): > 1000 nM
- EC50 ([2]; Table 1a): 127 nM

SMILES: Cn1nc(NS(C)(=O)=O)c2c(Cl)ccc(-n3c([C@H](Cc4cc(F)cc(F)c4)NC(=O)Cn4ccc(C5CC5)n4)nc4cccc(C(F)(F)F)c4c3=O)c21 (single isomer, unassigned) [Example 136]
- CC50 at 4 days ([1]; Table 1a, day 4, XTT): > 1000 nM
- EC50 ([2]; Renilla, NL43, Table 1a): 38.9 nM

SMILES: Cn1nc(NS(C)(=O)=O)c2c(Cl)ccc(-n3c([C@H](Cc4cc(F)cc(F)c4)NC(=O)Cn4nc(C(F)F)c5c4C(F)(F)[C@@H]4C[C@H]54)nc4cc(C(F)(F)F)ccc4c3=O)c21 (single isomer, unassigned) [Example 137]
- CC50 at 4 days ([1]; Table 1a, day 4, XTT): > 1000 nM
- EC50 ([2]; Table 1a): 9.89 nM

SMILES: Cn1nc(NS(C)(=O)=O)c2c(Cl)ccc(-n3c([C@H](Cc4cc(F)cc(F)c4)NC(=O)Cn4nc(C(F)F)c5c4C(F)(F)[C@@H]4C[C@H]54)nc4ccc(OC(F)(F)F)cc4c3=O)c21 (single isomer, unassigned) [Example 140]
- CC50 at 4 days ([1]; Table 1a, day 4, XTT): > 1000 nM
- EC50 ([2]; Renilla, NL43, Table 1a): 0.32 nM

SMILES: Cn1nc(NS(C)(=O)=O)c2c(Cl)ccc(-n3c([C@H](Cc4cc(F)cc(F)c4)NC(=O)Cn4ccc(C(F)(F)F)n4)nc4cc(C(F)(F)F)ccc4c3=O)c21 (single isomer, unassigned) [Example 141]
- CC50 at 4 days ([1]; Table 1a, day 4, XTT): > 1000 nM
- EC50 ([2]; Table 1a): 217 nM

SMILES: Cn1nc(NS(C)(=O)=O)c2c(Cl)ccc(-n3c([C@H](Cc4cc(F)cc(F)c4)NC(=O)Cn4ccc(C(F)(F)F)n4)nc4ccc(OC(F)(F)F)cc4c3=O)c21 (single isomer, unassigned) [Example 143]
- CC50 at 4 days ([1]; Table 1a, day 4, XTT): > 1000 nM
- EC50 ([2]; Table 1a): 84 nM

SMILES: Cn1nc(NS(C)(=O)=O)c2c(Cl)ccc(-n3c([C@H](Cc4cc(F)cc(F)c4)NC(=O)Cn4ccc(C5CC5)n4)nc4c(F)ccc(F)c4c3=O)c21 (single isomer, unassigned) [Example 145]
- CC50 at 4 days ([1]; Table 1a, day 4, XTT): > 1000 nM
- EC50 ([2]; Table 1a): 30.2 nM

SMILES: Cn1nc(NS(C)(=O)=O)c2c(Cl)ccc(-n3c([C@H](Cc4cc(F)cc(F)c4)NC(=O)Cn4nc(C(F)F)c5c4C(F)(F)[C@@H]4C[C@H]54)nc4c(F)ccc(F)c4c3=O)c21 (single isomer, unassigned) [Example 147]
- CC50 at 4 days ([1]; Table 1a, day 4, XTT): > 1000 nM
- EC50 ([2]; Table 1a): 27.9 nM

SMILES: Cn1nc(NS(C)(=O)=O)c2c(Cl)ccc(-n3c([C@H](Cc4cc(F)cc(F)c4)NC(=O)Cn4ccc(C5CC5)n4)nc4ccc(OC(F)(F)F)cc4c3=O)c21 (single isomer, unassigned) [Example 152]
- CC50 at 4 days ([1]; Table 1a, day 4, XTT): > 1000 nM
- EC50 ([2]; Table 1a): 173 nM

SMILES: Cn1nc(NS(C)(=O)=O)c2c(Cl)ccc(-n3c([C@H](Cc4cc(F)cc(F)c4)NC(=O)Cn4nc(C(F)F)c5c4C(F)(F)[C@@H]4C[C@H]54)nc4ccc(F)c(Cl)c4c3=O)c21 (single isomer, unassigned) [Example 160]
- CC50 at 4 days ([1]; Table 1a, day 4, XTT): > 1000 nM
- EC50 ([2]; Table 1a): 0.18 nM

SMILES: COc1ccc2nc([C@H](Cc3cc(F)cc(F)c3)NC(=O)Cn3nc(C(F)F)c4c3C(F)(F)[C@@H]3C[C@H]43)n(-c3ccc(Cl)c4c(NS(C)(=O)=O)nn(C)c34)c(=O)c2c1 (single isomer, unassigned) [Example 173]
- CC50 at 4 days ([1]; Table 1a, day 4, XTT): > 1000 nM
- EC50 ([2]; Table 1a): 32 nM

SMILES: Cn1nc(NS(C)(=O)=O)c2c(Cl)ccc(-n3c([C@H](Cc4cc(F)cc(F)c4)NC(=O)Cn4nc(C(F)F)c5c4C(F)(F)[C@@H]4C[C@H]54)nc4ccc(Cl)c(F)c4c3=O)c21 (single isomer, unassigned) [Example 176]
- CC50 at 4 days ([1]; Table 1a, day 4, XTT): > 1000 nM
- EC50 ([2]; Table 1a): 0.19 nM

SMILES: Cn1nc(NS(C)(=O)=O)c2c(Cl)ccc(-n3c([C@H](Cc4cc(F)cc(F)c4)NC(=O)Cn4nc(C(F)F)c5c4C(F)(F)[C@@H]4C[C@H]54)nc4cc(Cl)cc(Cl)c4c3=O)c21 (single isomer, unassigned) [Example 179]
- CC50 at 4 days ([1]; Table 1a, day 4, XTT): > 1000 nM
- EC50 ([2]; Table 1a): 0.077 nM

SMILES: COc1cc(OC)c2c(=O)n(-c3ccc(Cl)c4c(NS(C)(=O)=O)nn(C)c34)c([C@H](Cc3cc(F)cc(F)c3)NC(=O)Cn3nc(C(F)F)c4c3C(F)(F)[C@@H]3C[C@H]43)nc2c1 (single isomer, unassigned) [Example 181]
- CC50 at 4 days ([1]; Table 1a, day 4, XTT): > 1000 nM
- EC50 ([2]; Table 1a): 23.1 nM

SMILES: Cn1nc(NS(C)(=O)=O)c2c(Cl)ccc(-n3c([C@H](Cc4cc(F)cc(F)c4)NC(=O)Cn4ccc(C5CC5)n4)nc4cccc(F)c4c3=O)c21 (single isomer, unassigned) [Example 183]
- CC50 at 4 days ([1]; Table 1a, day 4, XTT): > 1000 nM
- EC50 ([2]; Table 1a): 21.5 nM

SMILES: COc1cc(F)c2c(=O)n(-c3ccc(Cl)c4c(NS(C)(=O)=O)nn(C)c34)c([C@H](Cc3cc(F)cc(F)c3)NC(=O)Cn3nc(C(F)F)c4c3C(F)(F)[C@@H]3C[C@H]43)nc2c1 (single isomer, unassigned) [Example 186]
- CC50 at 4 days ([1]; Table 1a, day 4, XTT): > 1000 nM
- EC50 ([2]; Table 1a): 0.072 nM

SMILES: COc1cc(F)c2c(=O)n(-c3ccc(Cl)c4c(NS(C)(=O)=O)nn(C)c34)c([C@H](Cc3cc(F)cc(F)c3)NC(=O)Cn3ccc(C4CC4)n3)nc2c1 (single isomer, unassigned) [Example 189]
- CC50 at 4 days ([1]; Table 1a, day 4, XTT): > 1000 nM
- EC50 ([2]; Table 1a): 6.46 nM

SMILES: COc1ccc2c(=O)n(-c3ccc(Cl)c4c(NS(C)(=O)=O)nn(CC(F)F)c34)c([C@H](Cc3cc(F)cc(F)c3)NC(=O)Cn3nc(C(F)F)c4c3C(F)(F)[C@@H]3C[C@H]43)nc2c1 (single isomer, unassigned) [Example 191]
- CC50 at 4 days ([1]; Table 1a, day 4, XTT): > 1000 nM
- EC50 ([2]; Renilla, NL43, Table 1a): 0.06 nM

SMILES: COc1ccc2c(=O)n(-c3ccc(Cl)c4c(NS(=O)(=O)C5CC5)nn(CC(F)F)c34)c([C@H](Cc3cc(F)cc(F)c3)NC(=O)Cn3nc(C(F)F)c4c3C(F)(F)[C@@H]3C[C@H]43)nc2c1 (single isomer, unassigned) [Example 192]
- CC50 at 4 days ([1]; Table 1a, day 4, XTT): > 1000 nM
- EC50 ([2]; Renilla, NL43, Table 1a): 0.04 nM

SMILES: Cn1nc(NS(C)(=O)=O)c2c(Cl)ccc(-n3c([C@H](Cc4cc(F)cc(F)c4)NC(=O)Cn4nc(C(F)F)c5c4C(F)(F)[C@@H]4C[C@H]54)nc4cc(C(C)(F)F)ccc4c3=O)c21 (single isomer, unassigned) [Example 196]
- CC50 at 4 days ([1]; Table 1a, day 4, XTT): > 1000 nM
- EC50 ([2]; Renilla, NL43, Table 1a): 0.081 nM

SMILES: Cn1nc(NS(C)(=O)=O)c2c(Cl)ccc(-n3c([C@H](Cc4cc(F)cc(F)c4)NC(=O)Cn4ccc(C5CC5)n4)nc4cc(C(C)(C)S(C)(=O)=O)ccc4c3=O)c21 (single isomer, unassigned) [Example 212]
- CC50 at 4 days ([1]; Table 1a, day 4, XTT): > 1000 nM
- EC50 ([2]; Renilla, NL43, Table 1a): 0.63 nM

SMILES: Cn1nc(NS(C)(=O)=O)c2c(Cl)ccc(-n3c(C(Cc4cc(F)cc(F)c4)NC(=O)Cn4nc(C(F)F)c5c4C(F)(F)C4CC54)nc4nc(Cl)ccc4c3=O)c21 (stereo in doubt) [Example 12.1, N—((S)-1-(7-chloro-3-(4-chloro-1-methyl-3-(methylsulfonamido)-1H-indazol-7-yl)-4-oxo-3,4-dihydropyrido[2,3-d]pyrimidin-2-yl)-2-(3,5-difluorophenyl)ethyl)-2-((3bS,4aR)-3-(difluoromethyl)-5,5-difluoro-3b,4,4a,5-tetrahydro-1H-cyclopropa[3,4]cyclopenta[1,2-c]pyrazol-1-yl)acetamide]
- CC50 at 4 days ([1]; Table 1, day 4, XTT): > 10000 nM
- EC50 ([2]; Renilla, NL43, Table 1): 4310 nM

Reference: patent publication US10954252B1, “Inhibitors of human immunodeficiency virus replication” (ViiV HEALTHCARE UK (NO.5) LIMITED, priority 2017, dated 2021)
